The test addresses T1, ΔF508-CFTR (Homo sapiens, UniProt P13569, DEL508-508).
T1 construct: host or cells: CFBE41o-, doxycycline-inducible
Kind of test: CFTR cell surface levels using HRP-tagged ΔF508-CFTR expressing CFBE cells, intrinsic corrector capacity. It counts as cell-based. The conditions noted are these: 20 hours at 33° C.; for EC50: read-out: EC50. The source says: Measuring CFTR Cell Surface Levels Using HRP-Tagged AF508-CFTR Expressing CFBE Cells
The HRP-tagged AF508-CFTR cell assay measures the expression of CFTR-ΔF508 at the plasma membrane. CFTR-ΔF508 has a folding defect leading to absence of protein at the plasma membrane. This assay is used to evaluate the capacity of compounds to increase the expression of CFTR-ΔF508 at the plasma membrane. The CFTR-ΔF508 is tagged with HRP (horse radish peroxidase enzyme) within the ECL4 (Extracellular loop 4) of CFTR (Phuan, P.-W. et al. Synergy-based small-molecule screen using a human lung epithelial cell line yields AF508-CFTR correctors that augment VX-809 maximal efficacy. Mol. Pharmacol. 86, 42-51 (2014)). When HRP-tagged AF508-CFTR is present at the plasma membrane, the HRP enzyme activity can be measured. The amount of CFTR-ΔF508 that can be rescued to the plasma membrane is correlated with the amount of functional enzyme that can be measured.
There are several ways to measure the capacity of compounds to rescue CFTR-ΔF508 to the plasma membrane; either compounds are evaluated on their own and the impact on plasma membrane levels is measured or compounds are evaluated in combination with a co-corrector, i.e. a compound that rescues CFTR-ΔF508 to the plasma membrane but rescue can be enhanced by addition of compounds due to a complementary mode of action.
Activity of Compounds for their Intrinsic Corrector Capacity:
For this purpose doxycycline-inducible AF508-CFTR-HRP expressing CFBE4lo-cells (obtained from Gergely Lukacs, McGill University) were maintained in MEM (Gibco; 31095) supplemented with 10% fetal bovine serum (Hyclone; SV30160.03) under puromycin (3 μg/mL) and G418 selection (0.2 mg/mL). For compound testing, cells were seeded at 4000 cells/well in white 384-well plates (Greiner; 781080) in 50 μL medium containing 0.5 μg/mL doxycycline and incubated for 68 hours at 37° C., 5% CO2. On day four, 10 μL test compounds diluted in PBS were added to the plates at a final DMSO concentration of 0.1%. All compound plates contained negative controls (DMSO) and positive controls (3 μM corrector, 3-[(2R,4R)-4-({[1-(2,2-difluoro-1,3-benzodioxol-5-yl)cyclopropyl]carbonyl}amino)-7-methoxy-3,4-dihydro-2H-chromen-2-yl]benzoic acid). Cell plates were incubated at 33° C., 5% CO2 for 20 hours. On day five, the cells were washed five times with phosphate-buffered saline, and HRP activity was assayed by the addition of 50 μL/well of HRP substrate (SuperSignal™ West Pico Chemiluminescent Substrate, Thermo Scientific; 34080). After incubation for 15 minutes in the dark, chemiluminescence was measured using a plate reader (EnVision®, Perkin Elmer). Raw data were normalized to percentage activity values using the equation: 100×(Sample−Negative control)/(Positive control−Negative Control).

Setting [1] is: HRP-tagged ΔF508-CFTR CFBE41o- cells, compounds alone (intrinsic corrector capacity), positive control 3 μM corrector.
Where [2] appears, read: HRP-tagged ΔF508-CFTR CFBE41o- cells, compounds alone (intrinsic corrector capacity).
[3] abbreviates: HRP-tagged ΔF508-CFTR CFBE cells, compound alone (intrinsic corrector capacity).

Each structure is given as a SMILES string. Read-outs that look alike come from different tables or passages of the source.

T1 sequence (P13569 with tags, fused parts or gaps DEL508-508): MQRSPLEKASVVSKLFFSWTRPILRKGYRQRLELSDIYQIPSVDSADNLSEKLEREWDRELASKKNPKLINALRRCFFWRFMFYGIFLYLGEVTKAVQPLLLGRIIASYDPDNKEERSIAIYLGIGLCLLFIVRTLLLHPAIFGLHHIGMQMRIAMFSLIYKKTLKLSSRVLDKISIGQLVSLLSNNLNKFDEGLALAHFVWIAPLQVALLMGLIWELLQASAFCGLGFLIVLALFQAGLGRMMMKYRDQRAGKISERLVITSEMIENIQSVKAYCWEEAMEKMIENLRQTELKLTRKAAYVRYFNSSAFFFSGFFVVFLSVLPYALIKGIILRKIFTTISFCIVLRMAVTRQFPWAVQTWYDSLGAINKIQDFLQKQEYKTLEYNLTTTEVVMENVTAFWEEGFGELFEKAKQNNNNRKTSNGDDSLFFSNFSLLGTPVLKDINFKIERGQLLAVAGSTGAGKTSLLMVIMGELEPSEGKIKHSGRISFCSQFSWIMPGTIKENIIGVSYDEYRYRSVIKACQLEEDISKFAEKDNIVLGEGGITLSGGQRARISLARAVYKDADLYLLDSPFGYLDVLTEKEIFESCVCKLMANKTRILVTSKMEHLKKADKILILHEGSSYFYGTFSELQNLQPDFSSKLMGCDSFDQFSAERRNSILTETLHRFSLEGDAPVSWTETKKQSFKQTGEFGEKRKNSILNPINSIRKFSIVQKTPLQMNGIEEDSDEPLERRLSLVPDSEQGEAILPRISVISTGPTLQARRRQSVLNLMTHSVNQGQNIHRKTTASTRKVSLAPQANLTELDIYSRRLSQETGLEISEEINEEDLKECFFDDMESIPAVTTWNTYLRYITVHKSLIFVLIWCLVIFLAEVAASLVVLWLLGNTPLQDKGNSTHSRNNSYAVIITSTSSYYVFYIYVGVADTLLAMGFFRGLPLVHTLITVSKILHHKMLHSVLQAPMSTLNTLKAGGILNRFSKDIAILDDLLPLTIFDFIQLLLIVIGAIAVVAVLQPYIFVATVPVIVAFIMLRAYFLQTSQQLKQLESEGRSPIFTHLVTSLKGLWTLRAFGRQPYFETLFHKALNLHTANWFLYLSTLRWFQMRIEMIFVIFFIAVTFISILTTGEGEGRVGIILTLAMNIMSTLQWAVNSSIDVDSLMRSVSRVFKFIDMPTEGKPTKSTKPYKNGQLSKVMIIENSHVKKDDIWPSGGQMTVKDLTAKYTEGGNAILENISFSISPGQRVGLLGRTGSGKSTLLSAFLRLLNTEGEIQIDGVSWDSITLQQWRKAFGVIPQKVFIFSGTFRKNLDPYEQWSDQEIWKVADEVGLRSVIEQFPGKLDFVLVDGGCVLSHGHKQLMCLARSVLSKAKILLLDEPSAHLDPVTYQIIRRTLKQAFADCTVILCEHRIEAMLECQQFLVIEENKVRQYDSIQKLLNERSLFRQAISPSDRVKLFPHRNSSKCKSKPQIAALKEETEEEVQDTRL

On to `Cc1nn(-c2ccccc2)c2nc(C(=O)O)cc(-c3ccc(N4CCC(F)C4)cc3)c12` (centres unmarked) [compound 28, 4-[4-(3-fluoropyrrolidin-1-yl)phenyl]-3-methyl-1-phenyl-1H-pyrazolo[3,4-b]pyridine-6-carboxylic acid], for which the “% Activation” value under setting [1] worked out at 129.5%. The EC50 (in general, the concentration giving half of the maximal effect) under setting [2] worked out at 1.18 µM.
For `COc1ccc(-c2cc(C(=O)O)nc3c2c(C)nn3CCC#N)cc1` [compound 4, 1-(2-cyanoethyl)-4-(4-methoxyphenyl)-3-methyl-1H-pyrazolo[3,4-b]pyridine-6-carboxylic acid], the “% Activation” value under setting [1] amounted to 3.339%. Further, under setting [2], the EC50 is more than 10 µM.
On to `Cc1nn(-c2cccc(Cl)c2)c2nc(C(=O)O)cc(-c3ccc(N4CCOCC4)cc3)c12` [compound 11, 1-(3-chlorophenyl)-3-methyl-4-[4-(morpholin-4-yl)phenyl]-1H-pyrazolo[3,4-b]pyridine-6-carboxylic acid], for which, under setting [1], the “% Activation” value worked out at 134.3%. For the same compound, the EC50 under setting [2] turned out to be 1.38 µM.
In the case of `Cc1nn(C2CCN(C)CC2)c2nc(C(=O)O)cc(-c3ccc(N4CCOCC4)cc3)c12` [compound 39, 3-methyl-1-(1-methylpiperidin-4-yl)-4-[4-(morpholin-4-yl)phenyl]-1H-pyrazolo[3,4-b]pyridine-6-carboxylic acid], under setting [1], the “% Activation” value is on record as −2.469%. Further, under setting [2], the EC50 was more than 10 µM.
For `Cc1nn(-c2cc(C(F)(F)F)[nH]n2)c2nc(C(=O)O)cc(-c3ccc(N4CCOCC4)cc3)c12` [compound 7, 3-methyl-4-[4-(morpholin-4-yl)phenyl]-1-[5-(trifluoromethyl)-1H-pyrazol-3-yl]-1H-pyrazolo[3,4-b]pyridine-6-carboxylic acid], in that order: 5.355% and more than 10 µM.
The like results for `Cc1nn(-c2ccccc2)c2nc(C(=O)O)cc(-c3ccc(N4CCS(=O)(=O)CC4)cc3)c12` [compound 14, 4-[4-(1,1-dioxo-1λ^6,4-thiazinan-4-yl)phenyl]-3-methyl-1-phenyl-1H-pyrazolo[3,4-b]pyridine-6-carboxylic acid] were, in that order, 58.56% and 3.34 µM.
In the case of `CC(C)COC(=O)N1CCN(c2cc(C(=O)O)nc3c2c(C2CCC2)nn3-c2ccc(F)cc2)CC1` [compound 930, 3-cyclobutyl-1-(4-fluorophenyl)-4-{4-[(2-methylpropoxy)carbonyl]piperazin-1-yl}-1H-pyrazolo[3,4-b]pyridine-6-carboxylic acid], under setting [3], the “% Activation” value is 434.3% and the EC50 was found to be 0.24 µM.
Consider `COc1cc(F)cc(-n2nc(C)c3c(-c4ccc(N5CCOCC5)cc4)cc(C(=O)O)nc32)c1` [compound 52, 1-(3-fluoro-5-methoxyphenyl)-3-methyl-4-[4-(morpholin-4-yl)phenyl]-1H-pyrazolo[3,4-b]pyridine-6-carboxylic acid], for which the “% Activation” value under setting [1] was 87.35%. Besides, the concentration for a half-maximal effect (EC50) under setting [2] was 2.68 µM.
As for `COc1cc(-n2nc(C)c3c(-c4ccc(N5CCOCC5)cc4)cc(C(=O)O)nc32)ccn1` [compound 51, 1-(2-methoxypyridin-4-yl)-3-methyl-4-[4-(morpholin-4-yl)phenyl]-1H-pyrazolo[3,4-b]pyridine-6-carboxylic acid], the “% Activation” value under setting [1] turned out to be 41.22%. The EC50 under setting [2] is 1.18 µM.
In the case of `Cc1nn(-c2ccc(OC(F)(F)F)cc2)c2nc(C(=O)O)cc(-c3ccc(N4CCOCC4)cc3)c12` [compound 31, 3-methyl-4-[4-(morpholin-4-yl)phenyl]-1-[4-(trifluoromethoxy)phenyl]-1H-pyrazolo[3,4-b]pyridine-6-carboxylic acid], under setting [1], the “% Activation” value is 96.335%. In addition, under setting [2], the EC50 was found to be 0.522 µM.
As for `CNC(=O)c1nn(-c2ccccc2)c2nc(C(=O)O)cc(-c3ccc(N4CCOCC4)cc3)c12` [compound 55, 3-(methylcarbamoyl)-4-[4-(morpholin-4-yl)phenyl]-1-phenyl-1H-pyrazolo[3,4-b]pyridine-6-carboxylic acid], the “% Activation” value under setting [1] is given as 0.088%. Further, the concentration giving a half-maximal response (EC50) under setting [2] was more than 10 µM.
For `Cc1cc(C)cc(-n2nc(C)c3c(-c4ccc(N5CCOCC5)cc4)cc(C(=O)O)nc32)c1` [compound 30, 1-(3,5-dimethylphenyl)-3-methyl-4-[4-(morpholin-4-yl)phenyl]-1H-pyrazolo[3,4-b]pyridine-6-carboxylic acid], the “% Activation” value under setting [1] worked out at 119.1%. Also, under setting [2], the EC50 came out at 1.21 µM.
The like results for `CCOC(=O)c1nn(-c2ccccc2)c2nc(C(=O)O)cc(-c3ccc(N4CCOCC4)cc3)c12` [compound 16, 3-(ethoxycarbonyl)-4-[4-(morpholin-4-yl)phenyl]-1-phenyl-1H-pyrazolo[3,4-b]pyridine-6-carboxylic acid] were, in that order, 92.93% and 3.34 µM.
The like results for `Cc1nn(-c2ccnc(F)c2)c2nc(C(=O)O)cc(-c3ccc(N4CCOCC4)cc3)c12` [compound 57, 1-(2-fluoropyridin-4-yl)-3-methyl-4-[4-(morpholin-4-yl)phenyl]-1H-pyrazolo[3,4-b]pyridine-6-carboxylic acid] were, in that order, 68.57% and 3.34 µM.
On to `Cc1nn(-c2ccccc2)c2nc(C(=O)O)cc(-c3ccc(N4CCCC4)cc3)c12` [compound 25, 3-methyl-1-phenyl-4-[4-(pyrrolidin-1-yl)phenyl]-1H-pyrazolo[3,4-b]pyridine-6-carboxylic acid], for which the “% Activation” value under setting [1] is listed as 93.1%. Further, the EC50 under setting [2] was 1.5 µM.
The like results for `COc1cccc(-n2nc(C)c3c(-c4ccc(N5CCOCC5)cc4)cc(C(=O)O)nc32)c1` [compound 21, 1-(3-methoxyphenyl)-3-methyl-4-[4-(morpholin-4-yl)phenyl]-1H-pyrazolo[3,4-b]pyridine-6-carboxylic acid] were, in that order, 103.72% and 1.06 µM.
With `Cc1nn(-c2ccccc2)c2nc(C(=O)O)cc(-c3ccc(N4CCN(S(C)(=O)=O)CC4)cc3)c12` [compound 53, 4-{4-[4-(methanesulfonyl)piperazin-1-yl]phenyl}-3-methyl-1-phenyl-1H-pyrazolo[3,4-b]pyridine-6-carboxylic acid], the “% Activation” value under setting [1] is on record as 72.97%. The EC50 under setting [2] was 3.34 µM.
For `Cc1nn(-c2cnn(C)c2)c2nc(C(=O)O)cc(-c3ccc(N4CCOCC4)cc3)c12` [compound 46, 3-methyl-1-(1-methyl-1H-pyrazol-4-yl)-4-[4-(morpholin-4-yl)phenyl]-1H-pyrazolo[3,4-b]pyridine-6-carboxylic acid], in that order: 15.23% and more than 10 µM.
For `Cc1nn(-c2cc[nH]c(=O)c2)c2nc(C(=O)O)cc(-c3ccc(N4CCOCC4)cc3)c12` [compound 58, 3-methyl-4-[4-(morpholin-4-yl)phenyl]-1-(2-oxo-1,2-dihydropyridin-4-yl)-1H-pyrazolo[3,4-b]pyridine-6-carboxylic acid], in that order: 4.754% and more than 10 µM.
With `COc1ccc(-c2cc(C(=O)O)nc3c2c(C)nn3C2CCCC2)cc1` [compound 3, 1-cyclopentyl-4-(4-methoxyphenyl)-3-methyl-1H-pyrazolo[3,4-b]pyridine-6-carboxylic acid], the “% Activation” value under setting [1] is 46.83%. Under setting [2], the EC50 stood at 3.34 µM.
As to `COc1cc(N2CCOCC2)ccc1-c1cc(C(=O)O)nc2c1c(C)nn2-c1ccccc1` [compound 33, 4-[2-methoxy-4-(morpholin-4-yl)phenyl]-3-methyl-1-phenyl-1H-pyrazolo[3,4-b]pyridine-6-carboxylic acid], the “% Activation” value under setting [1] is 90.265%. For the same compound, under setting [2], the EC50 is 1.53 µM.
`Cc1c(C(=O)O)nc2c(c(C)nn2-c2ccccc2)c1-c1ccc(N2CCOCC2)cc1` [compound 42, 3,5-dimethyl-4-[4-(morpholin-4-yl)phenyl]-1-phenyl-1H-pyrazolo[3,4-b]pyridine-6-carboxylic acid]: the “% Activation” value under setting [1] was determined as 74.83%. For the same compound, the 50% effective concentration (EC50) under setting [2] was 3.34 µM.

For the origin of these results see patent publication US9796711B2, “Substituted pyrazolo[3,4-b]pyridin-6-carboxylic acids and method of use” (AbbVie S.àr.l., priority 2015, dated 2017).
